In brackets after ≈: the same amount, converted by molar mass. Values belong to the compound of their own block, whether it stands above or below them.
How the values were obtained:
Type in all cases: functional
[1] = test system: Staphylococcus aureus; test: Antibacterial activity against ciprofloxacin, gentamicin, oxacillin, penicillin, and linezolid-resistant Staphylococcus aureus NRS120 expressing mecA
[2] = test system: Staphylococcus haemolyticus; test: Antibacterial activity against Staphylococcus haemolyticus ATCC 29970
[3] = test system: Bacillus cereus; test: Antibacterial activity against Bacillus cereus ATCC 13061
[4] = test system: Bacillus licheniformis; test: Antibacterial activity against Bacillus licheniformis ATCC 12759
[5] = test system: Staphylococcus aureus; test: Antibacterial activity against vancomycin-resistant Staphylococcus aureus VRS2
[6] = test system: Staphylococcus aureus; test: Antibacterial activity against vancomycin-resistant Staphylococcus aureus VRS1
[7] = test system: Staphylococcus epidermidis; test: Antibacterial activity against Staphylococcus epidermidis ATCC 35547
[8] = test system: Staphylococcus aureus; test: Antibacterial activity against methicillin, oxacillin, and tetracycline-resistant and vancomycin and linezolid-susceptible Staphylococcus aureus NRS100 COL expressing mecA
[9] = test system: Staphylococcus aureus; test: Antibacterial activity against ciprofloxacin, gentamicin, oxacillin, penicillin, and linezolid-resistant Staphylococcus aureus NRS119 expressing mecA
[10] = test system: Enterococcus faecium; test: Antibacterial activity against Vancomycin-susceptible Enterococcus faecium 119-39A
[11] = test system: Staphylococcus aureus; test: Antibacterial activity against methicillin, oxacillin, and tetracycline-resistant and vancomycin and linezolid-susceptible Staphylococcus aureus ATCC 27660 expressing mecA
[12] = test system: Enterococcus faecalis; test: Antibacterial activity against Enterococcus faecalis 201
[13] = test system: Enterococcus faecalis; test: Antibacterial activity against vancomycin-resistant Enterococcus faecalis 99
[14] = test system: Enterococcus faecium; test: Antibacterial activity against vancomycin-resistant Enterococcus faecium C68
[15] = test system: Enterococcus faecalis; test: Antibacterial activity against Enterococcus faecalis ATCC 29212
[16] = test system: Staphylococcus aureus; test: Antibacterial activity against Staphylococcus aureus ATCC 29213
[17] = test system: Enterococcus faecium; test: Antibacterial activity against vancomycin-resistant Enterococcus faecium 106

SMILES: Oc1ccc(-c2nc(-c3ccc(Oc4ccc(C(F)(F)F)cc4)c(O)c3)no2)cc1
MIC [1]: 8 µg/mL (≈ 19.3 µM)
MIC [2]: 8 µg/mL (≈ 19.3 µM)
MIC [3]: 8 µg/mL (≈ 19.3 µM)
MIC [4]: 16 µg/mL (≈ 38.6 µM)
MIC [5]: 8 µg/mL (≈ 19.3 µM)
MIC [6]: 8 µg/mL (≈ 19.3 µM)
MIC [7]: 16 µg/mL (≈ 38.6 µM)
MIC [8]: 16 µg/mL (≈ 38.6 µM)
MIC [9]: 8 µg/mL (≈ 19.3 µM)
MIC [10]: 8 µg/mL (≈ 19.3 µM)
MIC [11]: 16 µg/mL (≈ 38.6 µM)
MIC [12]: 8 µg/mL (≈ 19.3 µM)
MIC [13]: 16 µg/mL (≈ 38.6 µM)
MIC [14]: 8 µg/mL (≈ 19.3 µM)
MIC [15]: 8 µg/mL (≈ 19.3 µM)
MIC [16]: 2 µg/mL (≈ 4.83 µM)
MIC [17]: 8 µg/mL (≈ 19.3 µM)

SMILES: Oc1ccc(-c2nc(-c3ccc(Oc4ccc(C(F)(F)F)cc4)cc3Cl)no2)cc1
MIC [1]: 4 µg/mL (≈ 9.24 µM)
MIC [2]: 4 µg/mL (≈ 9.24 µM)
MIC [3]: 4 µg/mL (≈ 9.24 µM)
MIC [4]: 2 µg/mL (≈ 4.62 µM)
MIC [5]: 2 µg/mL (≈ 4.62 µM)
MIC [6]: 2 µg/mL (≈ 4.62 µM)
MIC [7]: 4 µg/mL (≈ 9.24 µM)
MIC [8]: 8 µg/mL (≈ 18.5 µM)
MIC [9]: 4 µg/mL (≈ 9.24 µM)
MIC [10]: 4 µg/mL (≈ 9.24 µM)
MIC [11]: 8 µg/mL (≈ 18.5 µM)
MIC [12]: 4 µg/mL (≈ 9.24 µM)
MIC [13]: 4 µg/mL (≈ 9.24 µM)
MIC [14]: 4 µg/mL (≈ 9.24 µM)
MIC [15]: 4 µg/mL (≈ 9.24 µM)
MIC [16]: 2 µg/mL (≈ 4.62 µM)
MIC [17]: 4 µg/mL (≈ 9.24 µM)

SMILES: [N-]=[N+]=Nc1cc(-c2noc(-c3ccc(O)cc3)n2)ccc1Oc1ccc(C(F)(F)F)cc1
MIC [1]: 4 µg/mL (≈ 9.1 µM)
MIC [2]: 2 µg/mL (≈ 4.55 µM)
MIC [3]: 4 µg/mL (≈ 9.1 µM)
MIC [4]: 4 µg/mL (≈ 9.1 µM)
MIC [5]: 2 µg/mL (≈ 4.55 µM)
MIC [6]: 2 µg/mL (≈ 4.55 µM)
MIC [7]: 2 µg/mL (≈ 4.55 µM)
MIC [8]: 4 µg/mL (≈ 9.1 µM)
MIC [9]: 4 µg/mL (≈ 9.1 µM)
MIC [10]: 4 µg/mL (≈ 9.1 µM)
MIC [11]: 4 µg/mL (≈ 9.1 µM)
MIC [12]: 4 µg/mL (≈ 9.1 µM)
MIC [13]: 4 µg/mL (≈ 9.1 µM)
MIC [14]: 4 µg/mL (≈ 9.1 µM)
MIC [15]: 2 µg/mL (≈ 4.55 µM)
MIC [16]: 2 µg/mL (≈ 4.55 µM)
MIC [17]: 4 µg/mL (≈ 9.1 µM)

MIC [16]: 4 µg/mL (≈ 7.63 µM)
SMILES: Oc1ccc(-c2nc(-c3ccc(Oc4ccc(C(F)(F)F)cc4)c(I)c3)no2)cc1

MIC [16]: 4 µg/mL (≈ 9.02 µM)
SMILES: O=[N+]([O-])c1cc(Oc2ccc(C(F)(F)F)cc2)ccc1-c1noc(-c2ccc(O)cc2)n1

MIC [16]: 8 µg/mL (≈ 17.6 µM)
SMILES: C=CCOc1cc(-c2noc(-c3ccc(O)cc3)n2)ccc1Oc1ccc(C(F)(F)F)cc1

MIC [16]: 8 µg/mL (≈ 19.2 µM)
SMILES: Oc1ccc(-c2nc(-c3ccc(Oc4ccc(C(F)(F)F)cc4)c(F)c3)no2)cc1

MIC [16]: 8 µg/mL (≈ 18 µM)
SMILES: O=[N+]([O-])c1cc(-c2noc(-c3ccc(O)cc3)n2)ccc1Oc1ccc(C(F)(F)F)cc1

MIC [16]: 8 µg/mL (≈ 27.5 µM)
SMILES: Cn1ccc2cc(-c3noc(-c4ccc(O)cc4)n3)ccc21

MIC [16]: 8 µg/mL (≈ 27.5 µM)
SMILES: Cn1ccc2ccc(-c3noc(-c4ccc(O)cc4)n3)cc21

MIC [16]: 2 µg/mL (≈ 5.77 µM)
SMILES: Oc1ccc(-c2nc(-c3ccc(Sc4ccccc4)cc3)no2)cc1

MIC [16]: 2 µg/mL (≈ 5.49 µM)
SMILES: Oc1ccc(-c2nc(-c3ccc(Sc4ccc(F)cc4)cc3)no2)cc1

SMILES: Oc1ccc(-c2nc(-c3ccc(Sc4ccc(C(F)(F)F)cc4)cc3)no2)cc1
MIC [1]: 2 µg/mL (≈ 4.83 µM)
MIC [2]: 2 µg/mL (≈ 4.83 µM)
MIC [3]: 8 µg/mL (≈ 19.3 µM)
MIC [4]: 1 µg/mL (≈ 2.41 µM)
MIC [5]: 2 µg/mL (≈ 4.83 µM)
MIC [6]: 2 µg/mL (≈ 4.83 µM)
MIC [7]: 2 µg/mL (≈ 4.83 µM)
MIC [8]: 2 µg/mL (≈ 4.83 µM)
MIC [9]: 2 µg/mL (≈ 4.83 µM)
MIC [10]: 2 µg/mL (≈ 4.83 µM)
MIC [11]: 2 µg/mL (≈ 4.83 µM)
MIC [12]: 2 µg/mL (≈ 4.83 µM)
MIC [13]: 2 µg/mL (≈ 4.83 µM)
MIC [14]: 2 µg/mL (≈ 4.83 µM)
MIC [15]: 2 µg/mL (≈ 4.83 µM)
MIC [16]: 2 µg/mL (≈ 4.83 µM)
MIC [17]: 2 µg/mL (≈ 4.83 µM)

MIC [16]: 4 µg/mL (≈ 12.1 µM)
SMILES: Oc1ccc(-c2nc(-c3ccc(Nc4ccccc4)cc3)no2)cc1

MIC [16]: 8 µg/mL (≈ 18.8 µM)
SMILES: Oc1ccc(-c2nc(-c3ccc(Sc4cccc(Br)c4)cc3)no2)cc1

MIC [16]: 8 µg/mL (≈ 22.6 µM)
SMILES: CC(C)(C)OC(=O)Nc1ccc(-c2noc(-c3ccc(O)cc3)n2)cc1

MIC [16]: 8 µg/mL
SMILES: Cl.Oc1ccc(-c2nc(-c3ccc(N4CCCCC4)cc3)no2)cc1

MIC [16]: ≥ 128 µg/mL
SMILES: Nc1cc(-c2noc(-c3ccc(O)cc3)n2)ccc1Oc1ccc(C(F)(F)F)cc1

MIC [16]: ≥ 128 µg/mL
SMILES: [N-]=[N+]=Nc1cc(Oc2ccc(C(F)(F)F)cc2)ccc1-c1noc(-c2ccc(O)cc2)n1

MIC [16]: ≥ 128 µg/mL
SMILES: Oc1ccc(-c2nc(-c3ccc(Oc4ccc(C(F)(F)F)cc4)c(Cl)c3)no2)cc1

MIC [16]: 64 µg/mL (≈ 230 µM)
SMILES: Oc1ccc(-c2nc(-c3ccc4occc4c3)no2)cc1

MIC [16]: ≥ 128 µg/mL
SMILES: Oc1ccc(-c2nc(-c3ccc4sccc4c3)no2)cc1

MIC [16]: 128 µg/mL (≈ 348 µM)
SMILES: Oc1ccc(-c2nc(-c3ccc4c(ccn4Cc4ccccc4)c3)no2)cc1

MIC [16]: ≥ 128 µg/mL
SMILES: Cn1ccc2ccc(-c3noc(-c4n[nH]cc4Cl)n3)cc21

MIC [16]: ≥ 128 µg/mL
SMILES: O=C1OCc2cc(-c3noc(-c4ccc(O)cc4)n3)ccc21

MIC [16]: ≥ 128 µg/mL
SMILES: Oc1ccc(-c2nc(-c3ccc4c(c3)OCO4)no2)cc1

MIC [16]: ≥ 128 µg/mL
SMILES: Clc1c[nH]nc1-c1nc(-c2ccc3c(c2)OCO3)no1

MIC [16]: ≥ 128 µg/mL
SMILES: O=C1OCc2cc(-c3noc(-c4n[nH]cc4Cl)n3)ccc21
